Results published in PMC7075904, “Tethered primary hepatocyte spheroids on polystyrene multi-well plates for high-throughput drug safety testing” (Scientific Reports, 2020).
Like-named read-outs stand apart in the source and are kept apart here.

Key:
[1] = tested on: primary human hepatocytes (PHHs) spheroids on the TS-PS system; test: Alamar Blue cell viability of PHHs tethered spheroids on PS plates (TS-PS); type: cell-based; conditions: Hepatocyte, PHHs in TS-PS, 24 hours after treatment, 3 donors
Experimental: Cryopreserved PHHs were purchased commercially from Life Technologies (Carlsbad, CA, USA) and BD Biosciences (Franklin Lakes, NJ, USA). Freshly thawed cells were cultured as described[32] with daily culture media change. Hepatocytes from three different donors (three lots of commercial cells) were used for the experiments and all assays were performed after 72 hours of culture.
Cell viability of hepatocytes was measured 24 hours after treatment with drugs using Alamar Blue cell viability assay according to manufacturer’s instructions. Drugs used for the cell viability assays (Acetaminophen, Troglitazone, Chlorpromazine and Diclofenac) were purchased from Sigma. Stock solutions of drugs were prepared in DMSO and then diluted in media to obtain desired working concentrations. Controls were treated with solvent alone (in absence of test compounds) and considered as 100% viability value.

[2] = tested on: hepatocyte tethered spheroids; test: Inhibition of spheroid spreading/tethering (live cell imaging of spheroid diameter); type: cell-based; conditions: 24 hour live cell imaging, tethered spheroids on modified PS plates
Experimental: Hepatocytes were cultured as mentioned in section 2.1 and 2.2. Once spheroid formation was observed (2–3 days after cell seeding), cells were treated with DMSO or relevant hepatotoxicants (APAP/troglitazone) at different concentrations. 24 hour live cell imaging was performed starting 2 hours after drug addition using IN Cell Analyzer 2000 Imaging System (GE Healthcare Lifesciences, Buckinghamshire, U.K.). Images were acquired every 2 hours. Images acquired at 2 hours, 8 hours, 16 hours and 24 hours were used for further analysis. Individual spheroids were identified by image segmentation using Matlab Image Processing Toolbox and Statistical Toolbox (Mathworks) and the sizes of the spheroids were determined. Density plots were acquired in R (Version 3.1.2) to show the spheroid size distribution and percentage of spheroids within a certain diameter range at different drug concentrations was plotted in Excel.

hepatocytes = conditions: cited from earlier work
[3] = tested on: rat hepatocytes tethered spheroids on modified PS plates; test: CellTiter-Glo 3D Cell Viability Assay on tethered spheroids with automated liquid handling; type: cell-based; conditions: 200 μM, 24 hours, rat hepatocyte tethered spheroids; DMSO-treated wells 12.32 × 10^6 RLU
Experimental: Primary hepatocytes were harvested from male Wistar rats using a two-step in situ collagenase perfusion method according to protocols described previously[19],[31]. Freshly isolated rat hepatocytes were seeded onto the different substrates at a density of 1 × 10^5 cells/cm^2 in 96-well microplates and cultured in 100 μl of William’s E culture medium supplemented with 1 mg/mL bovine serum albumin (BSA), 10 ng/mL epidermal growth factor, […] insulin, 5 nM dexamethasone, 50 ng/mL linoleic acid, 100 units/mL penicillin and […]. Media was changed daily during the entire culture period. For collagen monolayer culture, neutralized 1.5 mg/ml Type I bovine collagen (Advanced BioMatrix, San Diego, CA, USA) was coated on the surface of the microplates.
Cell attachment and tethered spheroid formation was monitored using phase contrast microscopy for a period of seven days. In addition, CellTiter-Glo 3D Cell Viability Assay (Promega, Madison, Wisconsin, USA), which determines the number of viable cells present in a 3D cell culture/spheroid by quantifying the amount of ATP present, was used to test the variability in cell attachment across the plate and adaptation of the plate to an automated liquid handling system 5 days after cells seeding. […] After that, CellTiter-Glo 3D was added to each of the wells and the relative light units (RLU) were quantified.

SMILES	IC50 [1] [mM]	IC50 ([2]; read-out: Concentration at which spheroids of diameter 90–120 μm decreased by 50% compared to untreated control) [mM]	IC50 (hepatocytes; read-out: IC50 (reported)) [mM]	IC50 ([2]; read-out: IC50 using changes in cellular dynamics (spheroids of diameter 90–120 μm decreased by 50% compared to untreated control)) [mM]	IC50 (hepatocytes; read-out: IC50 (conventional cell viability assays)) [mM]	CellTiter-Glo 3D signal (relative light units) [3]
Cc1c(C)c2c(c(C)c1O)CCC(C)(COc1ccc(CC3SC(=O)NC3=O)cc1)O2 (stereo not drawn) [Troglitazone]	0.1	0.01	0.14			
CC(=O)Nc1ccc(O)cc1 [Acetaminophen]	50			5	8 to 40	
O=C(O)Cc1ccccc1Nc1c(Cl)cccc1Cl [Diclofenac]	4					
CN(C)CCCN1c2ccccc2Sc2ccc(Cl)cc21 [Chlorpromazine]	0.122					1.55 × 10^4 RLU
